The source made the active and inactive calls. No cut-off for these calls is given here.
What was measured:
[1] = test system: RAW264.7; assay: Anti-inflammatory activity in mouse RAW264.7 cells assessed as inhibition of LPS-stimulated NO production preincubated with LPS and measured after 20 hrs by Griess reagent-based assay; type: functional, cell-based
[2] = test system: RAW264.7; assay: Cytotoxicity against mouse RAW264.7 cells at 6.25 to 100 uM measured after 24 hrs by MTT assay; type: cell-based; conditions: raw264.7, 24 h
[3] = test system: RAW264.7; assay: Anti-inflammatory activity in mouse RAW264.7 cells assessed as inhibition of LPS-stimulated NO production at 15 uM preincubated with LPS and measured after 20 hrs by Griess reagent-based assay relative to control; type: functional
[4] = test system: RAW264.7; assay: Antiinflammatory activity in mouse RAW264.7 cells assessed as decrease in LPS-induced IL-6 mRNA expression after 6 to 24 hrs by FQ-PCR analysis; type: functional, cell-based
[5] = test system: RAW264.7; assay: Antiinflammatory activity in mouse RAW264.7 cells assessed as decrease in LPS-induced IL-6 secretion after 24 hrs by ELISA; type: functional, cell-based
[6] = test system: RAW264.7; assay: Antiinflammatory activity in mouse RAW264.7 cells assessed as decrease in LPS-induced TNF-alpha secretion after 24 hrs by ELISA; type: functional, cell-based
[7] = biological target: Transcription factor p65 (Mus musculus) (UniProt Q04207); assay: Inhibition of LPS-induced NF-kappaB p65 translocation in mouse RAW264.7 cells at 3 to 12 uM incubated for 2 hrs by DAPI staining based immunofluorescence assay; type: cell-based
[8] = test system: RAW264.7; assay: Antiinflammatory activity in mouse RAW264.7 cells assessed as effect on LPS-induced TNF-alpha mRNA expression after 12 to 24 hrs by FQ-PCR analysis; type: functional, cell-based

Sequence of Transcription factor p65 (Mus musculus) (Q04207 whole entry): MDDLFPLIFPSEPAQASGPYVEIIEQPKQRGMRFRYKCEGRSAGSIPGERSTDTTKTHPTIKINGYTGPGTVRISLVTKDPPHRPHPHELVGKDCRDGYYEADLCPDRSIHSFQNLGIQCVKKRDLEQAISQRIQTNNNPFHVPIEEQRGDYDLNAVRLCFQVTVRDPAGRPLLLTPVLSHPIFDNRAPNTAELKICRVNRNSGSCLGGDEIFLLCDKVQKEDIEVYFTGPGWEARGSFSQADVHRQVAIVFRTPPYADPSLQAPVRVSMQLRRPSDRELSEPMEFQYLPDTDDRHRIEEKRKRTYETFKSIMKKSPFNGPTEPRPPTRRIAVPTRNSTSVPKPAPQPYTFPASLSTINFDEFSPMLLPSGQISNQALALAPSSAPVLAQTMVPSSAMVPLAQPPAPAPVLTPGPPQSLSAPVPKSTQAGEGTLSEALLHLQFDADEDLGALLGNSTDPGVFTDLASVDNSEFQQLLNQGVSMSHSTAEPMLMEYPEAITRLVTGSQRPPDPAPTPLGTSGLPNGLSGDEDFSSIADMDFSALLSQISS

Structure (SMILES) | inhibition [1] | Activity [2] | further results
CC(=O)O[C@@H]1[C@@H](C)/C=C/C(C)(C)C(=O)C[C@@H](OC(C)=O)/C(C)=C/[C@H]2[C@@H](OC(=O)c3ccccc3)[C@@H](C)C[C@]12OC(C)=O | inactive | Non-Toxic | –
CC(=O)O[C@]12C[C@@H](C)[C@H](OC(=O)c3ccccc3)[C@@H]1/C=C(\C)[C@H](O)CC(=O)C(C)(C)C/C=C(\C)C2=O | inactive | Non-Toxic | –
COc1cc(/C=C/c2ccccc2)c(C(=O)O)c(O)c1CC=C(C)C | – | – | inhibition at 15 µM [3]: 30.2%
CC(=O)O[C@@H]1[C@H](C)/C=C/C(C)(C)C(=O)C[C@@H](OC(=O)c2ccccc2)/C(C)=C/[C@H]2[C@@H](OC(=O)c3ccccc3)[C@H](C)C[C@]12OC(C)=O [EUPHOSCOPIN C] | inactive | Non-Toxic | –
CC(=O)O[C@]12C[C@@H](C)[C@H](OC(=O)c3ccccc3)[C@@H]1/C=C(\C)[C@H](OC(=O)c1ccccc1)CC(=O)C(C)(C)/C=C/[C@@H](C)C2=O | inactive | Non-Toxic | –
CC(=O)O[C@@H]1[C@@H](C)/C=C/C(C)(C)C(=O)C[C@@H](OC(C)=O)/C(C)=C/[C@H]2[C@@H](OC(=O)c3ccccc3)[C@H](C)C[C@]12OC(C)=O | inactive | Non-Toxic | –
CC(=O)O[C@@H]1[C@@H](C)[C@H](C=C(C)C)C(=O)C[C@@H](OC(C)=O)/C(C)=C/[C@H]2[C@@H](OC(=O)c3ccccc3)[C@H](C)C[C@]12OC(C)=O | – | Non-Toxic | Activity [4]: Dose-dependent effect; Activity [5]: Dose-dependent effect; Activity [6]: Dose-dependent effect; IC50 [1]: 7.4 µM; inhibition [7]: Active; Activity [8]: inactive
CC(=O)O[C@]12C[C@@H](C)[C@H](OC(=O)c3ccccc3)[C@@H]1/C=C(\C)C(=O)CC(=O)C(C)(C)C/C=C(\C)C2=O | inactive | Non-Toxic | –
CC(=O)O[C@]12C[C@H](C)[C@H](OC(=O)c3ccccc3)[C@@H]1/C=C(\C)[C@H](OC(=O)c1ccccc1)CC(=O)C(C)(C)/C=C/[C@@H](C)C2=O | inactive | Non-Toxic | –
C[C@@H]1C[C@H]2[C@@H]3CCC4=CC(=O)C=C[C@]4(C)[C@@]3(F)[C@@H](O)C[C@]2(C)[C@@]1(O)C(=O)CO [DEXAMETHASONE] | – | – | inhibition at 15 µM [3]: 34.2%
CC(=O)O[C@@H]1[C@@H](C)/C=C/C(C)(C)C(=O)C[C@@H](O)/C(C)=C/[C@H]2[C@@H](OC(=O)c3ccccc3)[C@H](C)C[C@]12OC(C)=O | inactive | Non-Toxic | –
CC(=O)O[C@@H]1[C@H](C)/C=C/C(C)(C)C(=O)C[C@@H](O)/C(C)=C/[C@H]2[C@@H](OC(=O)c3ccccc3)[C@H](C)C[C@]12OC(C)=O | inactive | Non-Toxic | –
CC(=O)O[C@@H]1[C@H](C)/C=C/C(C)(C)C(=O)CC/C(C)=C/[C@H]2[C@@H](OC(=O)c3ccccc3)[C@H](C)C[C@]12OC(C)=O | inactive | Non-Toxic | –

— ChEMBL document CHEMBL4334500, “Macrocyclic Diterpenoids from Euphorbia helioscopia and Their Potential Anti-inflammatory Activity” (J Nat Prod, 2019)
